Source: ChEMBL document CHEMBL3885861, “Open TG-GATES”

Species: Rattus norvegicus
Assay: Open TG-GATES - Regimen: Single
Format: toxicity, organism-based, Sprague-Dawley
Set-up: regimen Single, gender Male, age 6 weeks
Settings: in vivo, po, 300 mg/kg, route gavage, dose level Low; for APTT / Bas / Eos / Fbg / Hb / Ht / Lym / MCH / MCHC / MCV / Mono / Neu / PT / Plat / RBC / Ret / WBC: tissue Blood; for KIDNEY_L / KIDNEY_R / KIDNEY_TOTAL: tissue Kidney; for LIVER: tissue Liver; for A/G / ALP / ALT / AST / BUN / CRE / Ca / Cl / DBIL / GLC / IP / K / LDH / Na / PL / RALB / TBIL / TC / TG / TP / gamma-GTP: tissue Plasma

Compound: CCOc1ccc(NC(=O)CC(C)O)cc1 (configuration not stated) [BUCETIN]
- TERMINAL_BW (3 h): 213.6 g
- APTT (3 h): 15.8 s
- Bas (3 h): 0%
- Eos (3 h): 0.8%
- Fbg (3 h): 292.8 mg/dL
- Hb (3 h): 13 g/dL
- Ht (3 h): 39%
- Lym (3 h): 77.8%
- MCH (3 h): 21.4 pg
- MCHC (3 h): 33.3%
- MCV (3 h): 64.3 fL
- Mono (3 h): 2.6%
- Neu (3 h): 18.2%
- PT (3 h): 13.7 s
- Plat (3 h): 117.1 x10_4/uL
- RBC (3 h): 608.2 x10_4/ul
- Ret (3 h): 8.5%
- WBC (3 h): 68.4 x10_2/uL
- KIDNEY_L (3 h): 1 g
- KIDNEY_R (3 h): 1 g
- KIDNEY_TOTAL (3 h): 1.9 g
- LIVER (3 h): 9.6 g
- A/G (3 h): 0.9
- ALP (3 h): 1395.4 IU/L
- ALT (3 h): 33.2 IU/L
- AST (3 h): 66.8 IU/L
- BUN (3 h): 9.4 mg/dL
- CRE (3 h): 0.2 mg/dL
- Ca (3 h): 10.7 mg/dL
- Cl (3 h): 104.8 meq/L
- DBIL (3 h): 0.026 mg/dL
- GLC (3 h): 181 mg/dL
- IP (3 h): 9.1 mg/dL
- K (3 h): 4.2 meq/L
- LDH (3 h): 73.8 IU/L
- Na (3 h): 140.6 meq/L
- PL (3 h): 155.2 mg/dL
- RALB (3 h): 2.5 g/dL
- TBIL (3 h): 0.052 mg/dL
- TC (3 h): 84.4 mg/dL
- TG (3 h): 78 mg/dL
- TP (3 h): 5.4 g/dL
- gamma-GTP (3 h): 1.2 IU/L
- TERMINAL_BW (6 h): 209.9 g
- APTT (6 h): 15.2 s
- Bas (6 h): 0%
- Eos (6 h): 1%
- Fbg (6 h): 292.4 mg/dL
- Hb (6 h): 13.4 g/dL
- Ht (6 h): 40.3%
- Lym (6 h): 77%
- MCH (6 h): 20.7 pg
- MCHC (6 h): 33.4%
- MCV (6 h): 62 fL
- Mono (6 h): 2.6%
- Neu (6 h): 19%
- PT (6 h): 13.6 s
- Plat (6 h): 112.6 x10_4/uL
- RBC (6 h): 649.8 x10_4/ul
- Ret (6 h): 7.8%
- WBC (6 h): 80.5 x10_2/uL
- KIDNEY_L (6 h): 0.9 g
- KIDNEY_R (6 h): 0.9 g
- KIDNEY_TOTAL (6 h): 1.8 g
- LIVER (6 h): 8.7 g
- A/G (6 h): 0.9
- ALP (6 h): 1309.2 IU/L
- ALT (6 h): 29.8 IU/L
- AST (6 h): 65.8 IU/L
- BUN (6 h): 8 mg/dL
- CRE (6 h): 0.2 mg/dL
- Ca (6 h): 10.6 mg/dL
- Cl (6 h): 105 meq/L
- DBIL (6 h): 0.026 mg/dL
- GLC (6 h): 186 mg/dL
- IP (6 h): 10.5 mg/dL
- K (6 h): 4.3 meq/L
- LDH (6 h): 74.4 IU/L
- Na (6 h): 141.8 meq/L
- PL (6 h): 139.8 mg/dL
- RALB (6 h): 2.5 g/dL
- TBIL (6 h): 0.058 mg/dL
- TC (6 h): 77 mg/dL
- TG (6 h): 44.8 mg/dL
- TP (6 h): 5.3 g/dL
- gamma-GTP (6 h): 1.2 IU/L
- TERMINAL_BW (9 h): 206.6 g
- APTT (9 h): 18.5 s
- Bas (9 h): 0%
- Eos (9 h): 1%
- Fbg (9 h): 291.8 mg/dL
- Hb (9 h): 13.1 g/dL
- Ht (9 h): 39.5%
- Lym (9 h): 77.2%
- MCH (9 h): 20.9 pg
- MCHC (9 h): 33.3%
- MCV (9 h): 62.8 fL
- Mono (9 h): 2%
- Neu (9 h): 19.6%
- PT (9 h): 14.3 s
- Plat (9 h): 110.2 x10_4/uL
- RBC (9 h): 628.8 x10_4/ul
- Ret (9 h): 8.1%
- WBC (9 h): 59.9 x10_2/uL
- KIDNEY_L (9 h): 0.9 g
- KIDNEY_R (9 h): 0.9 g
- KIDNEY_TOTAL (9 h): 1.9 g
- LIVER (9 h): 8.1 g
- A/G (9 h): 0.9
- ALP (9 h): 1396.8 IU/L
- ALT (9 h): 31 IU/L
- AST (9 h): 68.4 IU/L
- BUN (9 h): 8.4 mg/dL
- CRE (9 h): 0.2 mg/dL
- Ca (9 h): 10.4 mg/dL
- Cl (9 h): 107.2 meq/L
- DBIL (9 h): 0.028 mg/dL
- GLC (9 h): 182 mg/dL
- IP (9 h): 10.3 mg/dL
- K (9 h): 4.3 meq/L
- LDH (9 h): 68.6 IU/L
- Na (9 h): 142.8 meq/L
- PL (9 h): 136.8 mg/dL
- RALB (9 h): 2.5 g/dL
- TBIL (9 h): 0.062 mg/dL
- TC (9 h): 77.2 mg/dL
- TG (9 h): 29.2 mg/dL
- TP (9 h): 5.4 g/dL
- gamma-GTP (9 h): 1.2 IU/L
- TERMINAL_BW (24 h): 223.3 g
- APTT (24 h): 19.1 s
- Bas (24 h): 0%
- Eos (24 h): 1%
- Fbg (24 h): 303 mg/dL
- Hb (24 h): 13.3 g/dL
- Ht (24 h): 40%
- Lym (24 h): 76.8%
- MCH (24 h): 20.9 pg
- MCHC (24 h): 33.3%
- MCV (24 h): 62.9 fL
- Mono (24 h): 3.4%
- Neu (24 h): 18.4%
- PT (24 h): 14.2 s
- Plat (24 h): 121.5 x10_4/uL
- RBC (24 h): 636.4 x10_4/ul
- Ret (24 h): 7.7%
- WBC (24 h): 109.1 x10_2/uL
- KIDNEY_L (24 h): 1 g
- KIDNEY_R (24 h): 1 g
- KIDNEY_TOTAL (24 h): 1.9 g
- LIVER (24 h): 10.8 g
- A/G (24 h): 0.9
- ALP (24 h): 1683.6 IU/L
- ALT (24 h): 38.8 IU/L
- AST (24 h): 67 IU/L
- BUN (24 h): 15.4 mg/dL
- CRE (24 h): 0.2 mg/dL
- Ca (24 h): 11.1 mg/dL
- Cl (24 h): 104.8 meq/L
- DBIL (24 h): 0.02 mg/dL
- GLC (24 h): 176.6 mg/dL
- IP (24 h): 7.7 mg/dL
- K (24 h): 4.1 meq/L
- LDH (24 h): 62.6 IU/L
- Na (24 h): 143.8 meq/L
- PL (24 h): 171.2 mg/dL
- RALB (24 h): 2.7 g/dL
- TBIL (24 h): 0.05 mg/dL
- TC (24 h): 89.2 mg/dL
- TG (24 h): 112.8 mg/dL
- TP (24 h): 5.7 g/dL
- gamma-GTP (24 h): 1 IU/L
